# Patent publication US9815883B2, “Inhibiting peptides derived from TREM-like transcript 1 (TLT-1) and uses thereof” (Institut National de la Sante et de la Recherche Medicale …, priority 2010, dated 2017)
# Entries after “also recorded” stand apart in the source; their conditions may differ.
# Key:
# [1] = test system: TREM-1 ligand (agonist); experiment: Immunoblot revealed by mouse anti-TREM-1 mAb (TREM-1 agonist); format: binding; settings: FIG. 1A
# From the text: To determine whether sTLT-1 may specifically bind to the TREM-1 ligand and thus interfere with the TREM-1/TREM-1 ligand interaction, we used a specific TREM-1 agonist known to bind and activate TREM-1, mimicking TREM-1 engagement by its ligand.
# [2] = test system: TREM-1; experiment: Protein phosphorylation analysis in stimulated neutrophils; format: cell-based, human
# Experimental: For these experiments, isolated human neutrophils were stimulated with TREM-1 agonist (αTREM-1, 5 μg/mL) with or without LR17 (30 μg/mL) or control LR17-scrambled peptide (30 μg/mL) at indicated times. Data are representative of at least 5 different experiments. Results are mean±SD. p values are ***p<0.001 **p<0.01 *p<0.05 [αTREM-1+LR17] versus [αTREM-1].
# (A) Activation of TREM-1 phosphorylation pathway: Western Blot of lysates of neutrophils stimulated for 1, 3, 10, 30 and 60 minutes, analysed with antibody to phospho (p)-p38 and (p)-ERK1/2.
# For these experiments, isolated human neutrophils or monocytes were stimulated with LPS (0.1 μg/mL) and TREM-1 agonist (αTREM-1, 5 μg/mL) with or without LR17 (30 μg/mL) or control LR17-scrambled peptide (30 μg/mL), at indicated times. Data are representative of at least 5 different experiments. Results are mean±SD. p values are ***p<0.001 **p<0.01 *p<0.05 [LPS/LR17] versus [LPS] or [LPS+αTREM-1/LR17] versus [LPS+αTREM-1].
# (A) Western Blot of lysates of neutrophils stimulated for 1, 3, 10, 30 and 60 minutes, analysed with antibody to phosphor (p)-p38 and (p)-ERK1/2.
# (§1) Depending on the experiment, cells were stimulated in complete medium supplemented with 100 ng/mL of E. Coli LPS (0111:B4, Sigma-Aldrich), anti-TREM-1 mAb (R&Dsystems) and TLT-1-peptides at different times and concentrations on 96-wells plates (Greiner Bio One). Supernatants were collected for cytokine measurements and cells subjected to flow cytometry or lysed for protein phosphorylation analyses and NFkB activity measurement.
# Stimulated PMNs were lysed at 1, 3, 10, 30 and 60 minutes with PhosphoSafe Extraction Reagent (Novagen) and centrifuged for 5 minutes at 16,000 g at 4° C. to collect the supernatant. Protein concentration was determined according to Bradford's method (Pierce). […] Alternatively, PMNs were analyzed after 20 minutes of stimulation for a panel of multiple phosphorylated proteins by immunoblot (Human Phospho-Kinase Array, R&Dsystems). Acquisition and quantitative signals density analyses were done by LAS-4000 imager and Multi-Gauge software (Fujifilm).
# [3] = test system: TREM-1; experiment: NF-kB activity measurement (nuclear p50/p65 ELISA) in neutrophils; format: cell-based, human; settings: LPS 0.1 μg/mL with or without αTREM-1; peptide 30 μg/mL
# Experimental: (C) NF-κB nuclear translocation: ELISA of nuclear p50 and p65 NF-kB subunits of neutrophils treated for 2 hours.
# Stimulated cells were collected, nuclear extracts obtained by nuclear extraction kit and NFkB activity measured with human p50/p65 combo transcription factor assay kit (Cayman Chemical) following the manufacturers' instructions.
# [4] = test system: TREM-1; experiment: ROS production by neutrophils (DCFDA, flow cytometry); format: cell-based, human; settings: peptide 30 μg/mL
# Experimental: (D) ROS production: Flow cytometric quantification (DCFDA reduction) of neutrophils ROS production after 2 hours stimulation.
# (§2) The quantitative determination of neutrophil phagocytosis and oxidative burst was performed by flow cytometry using the Phagotest and the Bursttest (Orpegen Pharma, Heidelberg, Germany) following the manufacturers' recommendations. A FITC-labelled opsonized E. coli was used to determine the general phagocytic activity (ingestion of one or more bacteria per cell) and the individual cellular phagocytic activity (number of bacteria per cell). For evaluation of oxidative burst activity, unlabeled opsonized E. coli, fMLP, PMA LPS and activated- or non-activated-platelets (30:1) were used as stimulants and DCFDA as a fluoregenic substrate (Invitrogen) accordingly with manufacturers' instructions.
# [5] = test system: human neutrophils; experiment: Neutrophil phagocytosis and oxidative burst (Phagotest, Bursttest); format: cell-based
# Experimental: Data (mean±SD) are representative of 6 different experiments.
# as §2
# [6] = test system: TREM-1; experiment: Cytokine expression and production by stimulated neutrophils and monocytes; format: cell-based, human
# Experimental: (E) Cytokines expression: TNF-α mRNA levels in neutrophils stimulated for 6 hours.
# (F) Cytokines production: ELISA of TNF-α in neutrophils treated for 2, 6 and 24 hours
# (F) Cytokines expression: TNF-α mRNA levels in neutrophils stimulated for 6 hours.
# (G-H) Cytokines production: ELISA of TNF-α, in neutrophils treated for 2, 6 and 24 hours.
# as §1
# Cytokines in supernatants of stimulated human cells or mouse plasma were measured by ELISA (human and mouse Quantikine ELISA kits, R&Dsystems) and cytokines panel assays (Proteome Profiler Human Cytokine Array Kit, Panel A and Proteome Profiler Mouse Cytokine Array Kit, Panel A, R&Dsystems) according to manufacturers' recommendations.
# [7] = test system: Trem-1 silenced human monocytes; experiment: TNF-α production by Trem-1 silenced monocytes; format: cell-based; settings: Trem-1 siRNA; LPS/anti-TREM-1 mAb
# Experimental: (I) ELISA of TNF-α produced by native or Trem-1 silenced human monocytes.
# TREM-1 silencing was performed with Human Monocyte Nucleofector Kit (Amaxa) using siRNA sequences obtained from Qiagen. Isolated monocytes were electroporated with siRNA (without siRNA and with siRNA without electroporation as negative control, and with a GFP-reporter plasmid for positive control) and cultured for 24 hours in Human Monocyte Nucleofector Medium (Amaxa) before stimulation. TREM-1 expression was then assessed by quantitative RT-PCR and flow cytometry 24 hours after transfection. Medium was changed and monocytes were stimulated with LPS, anti-TREM-1 mAb and TLT-1-peptides for 24 hours. Therefore, medium was collected for cytokine measurement.
sequence,measurement,setting,value
LQEEDAGEYGCMVDGAR (listed as Homo sapiens) [LR17],"binding to the TREM-1 ligand (TREM-1 agonist, anti-TREM-1 mAb)",[1],able to bind the TREM-1 ligand
same,phosphorylation of p38 and ERK1/2,"[2]; LPS 0.1 μg/mL with or without αTREM-1, peptide 30 μg/mL",decreased
same,"phosphorylation of mTOR, Lyn, AKT, MSK1/2, MEK 1/2, GSK 3α/β, RSK, and p53 (phosphoprotein arrays)","[2]; TREM-1 signalling, data not shown",reduced
same,p38 MAPK and ERK 1/2 phosphorylation,"[2]; αTREM-1 5 μg/mL, peptide 30 μg/mL, 1-60 minutes",partly abrogated
same,NF-κB translocation,[3],decreased
same,intracellular ROS production,[4]; LPS 0.1 μg/mL with or without αTREM-1,decreased
same,ROS production by neutrophils,"[4]; TREM-1 agonist and platelets as inducers, 2 hours",partly prevented
same,neutrophil oxidative burst mediated by E. coli,[5],decreased
same,neutrophils' phagocytic properties,[5]; E. coli,did not alter
same,PMA- or fMLP-induced oxidative burst,[5]; not shown,no action
same,"production of TNF-α, IL-6, IL-8, GRO-α, IL-1β, IL-16, MCP-1, MIP-1β and RANTES (broad cytokine arrays)",[6],decreased production
same,"LPS associated TNF-α secretion by neutrophils and monocytes, gene and protein level",[6]; LPS,dose-dependently reduced
same,synergy of αTREM-1 with LPS for cytokine production,[6]; LPS + αTREM-1,blocked; also recorded: abrogated
same,effects in human monocytes and upon TLR2 (Pam3SK4) stimulation,[6]; not shown,confirmed to occur
same,"cytokine production by activated neutrophils, gene and protein levels (TNF-α, IL-6, IL-8)","[6]; αTREM-1 5 μg/mL, peptide 30 μg/mL",able to decrease cytokine production
same,αTREM-1 induced TNF-α production by neutrophils,[6]; αTREM-1 alone,abrogated
same,TNF-α synthesis by silenced monocytes,[7],did not show any effect
